Experimental data published in patent US11866430B2, “Naphthyridinone compounds useful as T cell activators” (priority 2018, dated 2024).
Where two headings read alike, the source gives them in different places.

Legend:
[1] = system: pre-activated CD4 T cells and Raji cells; test: Raji CD4 T Cell IL2 Assay; assay type: cell-based
[2] = molecular target: human DGKζ (Homo sapiens (Human), UniProt Q13574); test: DGKζ assay (detergent/lipid micelle substrate); assay type: biochemical; conditions: detergent/lipid micelle substrate; read-out: DGKζ IC50
human DGKζ, sequence (Q13574 other isoform, or with tags, fused parts or gaps): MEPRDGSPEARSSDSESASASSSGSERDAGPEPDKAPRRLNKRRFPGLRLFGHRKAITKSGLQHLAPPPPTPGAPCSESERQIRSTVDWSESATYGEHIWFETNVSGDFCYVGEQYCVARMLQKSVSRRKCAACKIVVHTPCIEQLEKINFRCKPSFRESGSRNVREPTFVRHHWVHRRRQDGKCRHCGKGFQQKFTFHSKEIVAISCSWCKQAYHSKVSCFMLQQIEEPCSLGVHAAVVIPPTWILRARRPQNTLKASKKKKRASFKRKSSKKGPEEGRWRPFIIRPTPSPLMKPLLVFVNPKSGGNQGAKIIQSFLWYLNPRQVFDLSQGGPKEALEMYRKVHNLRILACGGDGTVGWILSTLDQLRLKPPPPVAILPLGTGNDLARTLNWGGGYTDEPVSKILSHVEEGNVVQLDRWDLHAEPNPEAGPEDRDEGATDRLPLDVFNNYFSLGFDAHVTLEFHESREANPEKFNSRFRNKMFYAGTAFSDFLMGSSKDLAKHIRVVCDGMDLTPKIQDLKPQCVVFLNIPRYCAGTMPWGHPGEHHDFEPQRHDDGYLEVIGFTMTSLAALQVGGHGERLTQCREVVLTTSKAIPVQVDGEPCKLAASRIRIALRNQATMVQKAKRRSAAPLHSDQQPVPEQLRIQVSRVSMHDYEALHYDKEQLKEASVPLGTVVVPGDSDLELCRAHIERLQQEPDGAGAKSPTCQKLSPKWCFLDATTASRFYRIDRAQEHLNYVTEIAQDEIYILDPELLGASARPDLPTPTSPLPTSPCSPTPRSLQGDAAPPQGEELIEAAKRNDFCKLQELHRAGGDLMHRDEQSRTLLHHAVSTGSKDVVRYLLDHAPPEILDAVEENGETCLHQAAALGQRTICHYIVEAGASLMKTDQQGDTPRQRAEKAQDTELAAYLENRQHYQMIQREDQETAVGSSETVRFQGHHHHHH
Method: (§1) The DGKα and DGKζ reactions were performed using either extruded liposome (DGKα and DGKζ LIPGLO assays) or detergent/lipid micelle substrate (DGKα and DGKζ assays). The reactions were carried out in 50 mM MOPS pH 7.5, 100 mM NaCl, 10 mM MgCl2, 1 μM CaCl2, and 1 mM DTT (assay buffer). The reactions using a detergent/lipid micelle substrate also contained 50 mM octyl B-D-glucopyranoside. […] The lipid substrate concentrations were […], 0.25 mM DAG, and 2.75 mM PC for the extruded liposome reactions.
(§2) The compound inhibition studies were carried out as follows: 50 nL droplets of each test compound (top concentration 10 mM with 11 point, 3-fold dilution series for each compound) solubilized in DMSO were transferred to wells of a white 1536 well plate (Corning 3725). A 5 mL enzyme/substrate solution at 2× final reaction concentration was prepared by combining 2.5 mL 4× enzyme solution (20 nM DGKα or DGKζ (prepared as described below) in assay buffer) and 2.5 mL of either 4× liposome or 4× detergent/lipid micelle solution (compositions described below) and incubated at room temperature for 10 minutes. Next, 1 μL 2× enzyme/substrate solution was added to wells containing the test compound and reactions were initiated with the addition of 1 μL 300 uM ATP. The reactions were allowed to proceed for 1 hr, after which 2 μL Glo Reagent (Promega V9101) was added and incubated for 40 minutes. Next, 4 μL Kinase Detection Reagent was added and incubated for 30 minutes. Luminescence was recorded using an EnVision microplate reader. […] The compounds were evaluated at 11 concentrations to determine IC50.
(§3) The detergent/lipid micelle was prepared by combining 15 g phosphatidylserine (Avanti 840035P) and 1 g diacylglycerol (800811O) and dissolving into 150 mL chloroform in a 2 L round bottom flask. Chloroform was removed under high vacuum by rotary evaporation. The resulting colorless, tacky oil was resuspended in 400 mL 50 mM MOPS pH 7.5, 100 mM NaCl, 20 mM NaF, 10 mM MgCl2, 1 μM CaCl2), 1 mM DTT, and 200 mM octyl glucoside by vigorous mixing. The lipid/detergent solution was split into 5 mL aliquots and stored at −80° C.
(§4) Human DGK-alpha-TVMV-His-pFBgate and human DCK-zeta-transcript variant-2-TVMV-His-pFBgate baculovirus samples were generated using the Bac-to-Bac baculovirus expression system (Invitrogen) according to the manufacturer's protocol. The DNA used for expression of DGK-alpha and DGK-zeta have SEQ ID NOs: 1 and 3, respectively. Baculovirus amplification was achieved using infected Sf9 cells at 1:1500 virus/cell ratios, and grown for 65 hours at 27° C. post-transfection.
(§5) The expression scale up for each protein was carried out in the Cellbag 50 L WAVE-Bioreactor System 20/50 from GE Healthcare Bioscience. 12 L of 2×10^6 cells/mL Sf9 cells (Expression System, Davis, Calif.) grown in ESF921 insect medium (Expression System) were infected with virus stock at 1:200 virus/cell ratios, and grown for 66-68 hours at 27° C. post-infection. The infected cell culture was harvested by centrifugation at 2000 rpm for 20 min 4° C. in a SORVALL® RC12BP centrifuge. The cell pellets were stored at −70° C. until purification.
(§6) Full length human DGKα and DGKζ, each expressed containing a TVMV-cleavable C-terminal Hexa-His tag sequence (SEQ ID NOs: 2 and 4, respectively) and produced as described above, were purified from Sf) baculovirus-infected insect cell paste. The cells were lysed using nitrogen cavitation method with a nitrogen bomb (Parr Instruments), and the lysates were clarified by centrifugation. […] The three steps column chromatography included nickel affinity resin capture (i.e. HisTrap FF crude, GE Healthcare), followed by size exclusion chromatography (i.e. HiLoad 26/600 Superdex 200 prep grade, GE Healthcare for DGK-alpha, and HiPrep 26/600 Sephacryl S 300_HR, GE Healthcare for DGK-zeta).

[3] = molecular target: human DGKα (Homo sapiens (Human), UniProt P23743); test: biochemical; conditions: detergent/lipid micelle substrate; read-out: DGKα IC50
human DGKα, sequence (P23743 other isoform, or with tags, fused parts or gaps): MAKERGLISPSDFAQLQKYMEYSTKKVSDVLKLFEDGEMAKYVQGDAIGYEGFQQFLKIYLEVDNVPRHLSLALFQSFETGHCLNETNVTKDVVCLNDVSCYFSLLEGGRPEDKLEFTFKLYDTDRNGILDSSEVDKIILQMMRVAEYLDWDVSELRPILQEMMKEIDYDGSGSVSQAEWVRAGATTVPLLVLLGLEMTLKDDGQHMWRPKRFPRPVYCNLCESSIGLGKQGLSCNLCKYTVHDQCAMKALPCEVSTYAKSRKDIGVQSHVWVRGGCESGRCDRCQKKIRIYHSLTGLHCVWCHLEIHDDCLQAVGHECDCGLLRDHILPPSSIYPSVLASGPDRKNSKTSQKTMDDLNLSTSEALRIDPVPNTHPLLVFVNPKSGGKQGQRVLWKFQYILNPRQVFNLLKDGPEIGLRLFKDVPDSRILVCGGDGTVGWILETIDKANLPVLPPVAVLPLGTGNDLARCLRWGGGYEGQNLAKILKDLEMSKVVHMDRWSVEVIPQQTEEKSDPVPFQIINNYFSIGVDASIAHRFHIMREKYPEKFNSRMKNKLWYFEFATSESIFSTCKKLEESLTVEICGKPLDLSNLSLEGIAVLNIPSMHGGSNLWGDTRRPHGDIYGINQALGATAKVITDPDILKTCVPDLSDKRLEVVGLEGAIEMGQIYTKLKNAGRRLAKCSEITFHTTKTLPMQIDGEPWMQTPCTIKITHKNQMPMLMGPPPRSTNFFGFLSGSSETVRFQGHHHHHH
Method: as §1, §2, §3, §4, §5, §6

Row | Compound | IC50 ([1]; Homo sapiens, Raji) | IC50 [2] | IC50 [3] | IC50 [1]
1 | Cn1c(=O)c(C#N)c(N2CCN(C(c3ccc(F)cc3)c3ccccc3O)CC2)c2nc(Br)ccc21 (racemic) [Example 8, 6-bromo-4-{4-[(4-fluorophenyl)(2-hydroxyphenyl)methyl]piperazin-1-yl}-1-methyl-2-oxo-1,2-dihydro-1,5-naphthyridine-3-carbonitrile] | 91 nM | – | – | –
2 | COc1ccccc1C(c1ccc(F)cc1)N1CCN(c2c([N+](=O)[O-])c(=O)n(C)c3ccc(C#N)nc23)CC1 (racemic) [Example 18, 8-{4-[(4-fluorophenyl)(2-methoxyphenyl)methyl]piperazin-1-yl}-5-methyl-7-nitro-6-oxo-5,6-dihydro-1,5-naphthyridine-2-carbonitrile] | 23 nM | 2500 nM | 960 nM | –
3 | C#CCn1c(=O)c(C#N)c(N2CCN(C(c3ccc(F)cc3)c3ccccc3O)CC2)c2nc(Br)ccc21 (racemic) [Example 105, 6-bromo-4-(4-((4-fluorophenyl)(2-hydroxyphenyl)methyl)piperazin-1-yl)-2-oxo-1-(prop-2-yn-1-yl)-1,2-dihydro-1,5-naphthyridine-3-carbonitrile] | – | 2500 nM | 580 nM | –
4 | C#CCn1c(=O)c([N+](=O)[O-])c(N2CCN(C(c3ccc(F)cc3)c3ccc(F)cc3O)CC2)c2nc(C#N)ccc21 (racemic) [Example 119, 8-(4-((4-fluoro-2-hydroxyphenyl)(4-fluorophenyl)methyl)piperazin-1-yl)-7-nitro-6-oxo-5-(prop-2-yn-1-yl)-5,6-dihydro-1,5-naphthyridine-2-carbonitrile] | – | 190 nM | 970 nM | –
5 | COc1cc(F)ccc1C(c1ccc(F)cc1)N1CCN(c2c([N+](=O)[O-])c(=O)n(C)c3ccc(C#N)nc23)CC1 (racemic) [Example 123, 8-(4-((4-fluoro-2-methoxyphenyl)(4-fluorophenyl)methyl)piperazin-1-yl)-5-methyl-7-nitro-6-oxo-5,6-dihydro-1,5-naphthyridine-2-carbonitrile] | – | – | 2300 nM | –
6 | C#CCn1c(=O)c([N+](=O)[O-])c(N2CCN(C(c3ccc(F)cc3)c3ccc(F)cc3OC)CC2)c2nc(C#N)ccc21 (racemic) [Example 126, 8-(4-((4-fluoro-2-methoxyphenyl)(4-fluorophenyl)methyl)piperazin-1-yl)-7-nitro-6-oxo-5-(prop-2-yn-1-yl)-5,6-dihydro-1,5-naphthyridine-2-carbonitrile] | – | 330 nM | 6100 nM | –
7 | C#CCOc1ccccc1C(c1ccc(F)cc1)N1CCN(c2c(C#N)c(=O)n(C)c3ccc(Br)nc23)CC1 (single isomer, unassigned) [Example 6, 6-bromo-4-{4-[(4-fluorophenyl) [2-(prop-2-yn-1-yloxy)phenyl]methyl]piperazin-1-yl}-1-methyl-2-oxo-1,2-dihydro-1,5-naphthyridine-3-carbonitrile] | – | > 240000 nM | 6500 nM | 820 nM
8 | C#CCOc1ccccc1C(c1ccc(F)cc1)N1CCN(c2c(C#N)c(=O)n(C)c3ccc(Br)nc23)CC1 (single isomer, unassigned) [Example 7, 6-bromo-4-{4-[(4-fluorophenyl) [2-(prop-2-yn-1-yloxy)phenyl]methyl]piperazin-1-yl}-1-methyl-2-oxo-1,2-dihydro-1,5-naphthyridine-3-carbonitrile] | – | 120000 nM | 500 nM | 75 nM
9 | Cn1c(=O)c(C#N)c(N2CCN(C(c3ccc(F)cc3)c3ccccc3O)CC2)c2nc(Br)ccc21 (single isomer, unassigned) [Example 9, 6-bromo-4-{4-[(4-fluorophenyl)(2-hydroxyphenyl)methyl]piperazin-1-yl}-1-methyl-2-oxo-1,2-dihydro-1,5-naphthyridine-3-carbonitrile] | – | – | – | > 100000 nM
10 | Cn1c(=O)c(C#N)c(N2CCN(C(c3ccc(F)cc3)c3ccccc3O)CC2)c2nc(Br)ccc21 (single isomer, unassigned) [Example 10, 6-bromo-4-{4-[(4-fluorophenyl)(2-hydroxyphenyl)methyl]piperazin-1-yl}-1-methyl-2-oxo-1,2-dihydro-1,5-naphthyridine-3-carbonitrile] | – | – | – | 3 nM
11 | Cn1c(=O)c(C#N)c(N2CCN(CC(O)c3ccc(F)cc3)CC2)c2nc(Br)ccc21 (single isomer, unassigned) [Example 29, 6-bromo-4-{4-[2-(4-fluorophenyl)-2-hydroxyethyl]piperazin-1-yl}-1-methyl-2-oxo-1,2-dihydro-1,5-naphthyridine-3-carbonitrile] | – | > 240000 nM | 570 nM | 2300 nM
12 | Cn1c(=O)c(C#N)c(N2CCN(CC(O)c3ccc(F)cc3)CC2)c2nc(Br)ccc21 (single isomer, unassigned) [Example 30, 6-bromo-4-{4-[2-(4-fluorophenyl)-2-hydroxyethyl]piperazin-1-yl}-1-methyl-2-oxo-1,2-dihydro-1,5-naphthyridine-3-carbonitrile] | – | 140000 nM | 1800 nM | 1100 nM
13 | COc1cc(F)ccc1C(c1ccc(F)cc1)N1CCN(c2c([N+](=O)[O-])c(=O)n(C)c3ccc(Br)nc23)CC1 (single isomer, unassigned) [Example 57, 6-bromo-4-(4-((4-fluoro-2-methoxyphenyl)(4-fluorophenyl)methyl)piperazin-1-yl)-1-methyl-3-nitro-1,5-naphthyridin-2(1H)-one] | – | 110000 nM | 1600 nM | 140 nM
14 | Cn1c(=O)c(C#N)c(N2CCN(C3CCc4cc(F)cc(O)c43)CC2)c2nc(Cl)ccc21 (stereo not drawn) [Example 201, 6-chloro-4-(4-(5-fluoro-7-hydroxy-2,3-dihydro-1H-inden-1-yl)piperazin-1-yl)-1-methyl-2-oxo-1,2-dihydro-1,5-naphthyridine-3-carbonitrile] | 22000 nM | – | – | –
15 | Cn1c(=O)c(C#N)c(N2CCN(C(c3ccc(F)cc3)c3ccc(F)cc3O)CC2)c2nc(Cl)ccc21 (stereo not drawn) [Example 222, 6-chloro-4-(4-((4-fluoro-2-hydroxyphenyl)(4-fluorophenyl)methyl)piperazin-1-yl)-1-methyl-2-oxo-1,2-dihydro-1,5-naphthyridine-3-carbonitrile] | 68 nM | – | 83 nM | –
16 | Cc1ccc2c(n1)c(N1CCN(C(c3ccc(F)cc3)c3ccc(F)cc3)CC1)c(F)c(=O)n2C [Example 234, 4-(4-(bis(4-fluorophenyl)methyl)piperazin-1-yl)-3-fluoro-1,6-dimethyl-1,5-naphthyridin-2(1H)-one] | 130 nM | – | 16000 nM | –
17 | COc1ccc(CN2CCN(c3c(C#N)c(=O)n(C)c4ccc(Cl)nc34)CC2)c(O)c1 [Example 301, 6-chloro-4-{4-[(2-hydroxy-4-methoxyphenyl)methyl]piperazin-1-yl}-1-methyl-2-oxo-1,2-dihydro-1,5-naphthyridine-3-carbonitrile] | – | > 240000 nM | – | –
18 | Cn1c(=O)c(C#N)c(N2CCN(Cc3cccc(Br)c3O)CC2)c2nc(Br)ccc21 [Example 380, 6-bromo-4-{4-[(3-bromo-2-hydroxyphenyl)methyl]piperazin-1-yl}-1-methyl-2-oxo-1,2-dihydro-1,5-naphthyridine-3-carbonitrile] | – | > 240000 nM | 830 nM | –
